Values belong to the molecule of their own block, whether it stands above or below them.
Columns and labels:
[1] = test system: LLA (long loop ATP hairpin aptamer) (DNA, aptamer) CACCTGGGGGAGTATTGCGGAGGAAGGTTTTTTTTTTTTTTTTTTTTTTTTTTTTTTTTCCAGGTGTT; experiment: surface plasmon field-enhanced fluorescence titration; settings: 6 mM MgCl2; 10 mM Tris pH 7.4 (HAB); aptamer immobilised on gold; up to 12 mM guanosine
[2] = test system: SLA (short loop ATP hairpin aptamer) (DNA, aptamer, PEG6 spacer between 29 and 30) CACCTGGGGGAGTATTGCGGAGGAAGGTTCCAGGTG; experiment: surface plasmon field-enhanced fluorescence titration, Langmuir isotherm; settings: 6 mM MgCl2, 10 mM Tris pH 7.4 (HAB)
[3] = test system: LLA (long loop ATP hairpin aptamer) (DNA, aptamer) CACCTGGGGGAGTATTGCGGAGGAAGGTTTTTTTTTTTTTTTTTTTTTTTTTTTTTTTTCCAGGTGTT; experiment: as above; settings: 6 mM MgCl2, 10 mM Tris pH 7.4 (HAB)
[4] = aptamer immobilised, fit limited to ATP ≤2 mM, full curve deviates from Langmuir

binding [1]: no
Compound: Nc1nc2c(ncn2[C@@H]2O[C@H](CO)[C@@H](O)[C@H]2O)c(=O)[nH]1

Kd ([2]; aptamer immobilised on gold): 90 µM
Kd ([3]; aptamer immobilised on gold): 50 µM
Compound: Nc1ncnc2c1ncn2[C@@H]1O[C@H](CO)[C@@H](O)[C@H]1O

Kd [2, 4]: 300 µM
Kd [3, 4]: 120 µM
Compound: Nc1ncnc2c1ncn2[C@@H]1O[C@H](COP(=O)(O)OP(=O)(O)OP(=O)(O)O)[C@@H](O)[C@H]1O

From article PMC5537696 (2017)
